Measured values: US11028078B2 (The Johns Hopkins University, priority 2011, dated 2021)

Key:
[1] = system: VEGFR2; assay: VEGFR2 glycosylation in HUVEC (Western blot scoring); format: cell-based, human; details: VEGFR2 hypoglycosylation score in HUVEC, 2 μM, 24 h
Experimental: VEGFR2 hypoglycosylation was scored either robust (++), intermediate (+), or absent (−) (FIG. 6).
HUVEC were seeded at 5×10^4 per well of a 6-well plate in 3 mL of media. After an overnight recovery, the media was replaced with 2 mL fresh media and the analogs were added from 200× stocks in DMSO. Following a 24-h incubation, the media was aspirated and 2×SDS sample buffer was added to the cells which were incubated on ice for 10 min and then boiled for 10 min. […] Following three washes in TBS-T, the membrane was incubated with anti-rabbit horseradish peroxidase conjugated IgG (GE Healthcare) (1:5000-1:10000 dilution) in 1% BSA in TBS-T. The membranes were washed three times in TBS-T, incubated for 1-5 minutes with ECL substrate (Immobilon Wester, Milipore) and visualized (Kodak Image Staion 440 CF).

[2] = system: MB cultures derived from Ptch−/+; p53−/− mice; assay: Medulloblastoma (MB) proliferation assay; format: cell-based, mouse; details: mouse medulloblastoma cultures, 96 h; relative to itraconazole
Text: These cultures were derived from Ptch^−/+; p53^−/− mice that spontaneously develop medulloblastoma associated with ligand independent Hh pathway activation.
MB cultures were derived from mouse Ptch^−/+; p53^−/− MB grown as hind-flank allografts in nude mice (Harlan). Briefly, tumors were mechanically disrupted and made into single cell suspensions by two passages through a 70 μm nylon filter. Cells were pelleted by centrifugation and resuspended in PBS pH 7.4 twice. The cell suspension was then subjected to centrifugation at 1000×g for 25 min over a ficoll gradient. The viable cell layer formed at the ficoll boundary was then collected, suspended in PBS, and pelleted by centrifugation. The resulting pellet was then suspended and cultured as “neurospheres” in Neurobasal Media-A supplemented with retinoic acid deficient B-27 extract (NBMedia). Cells were cultured for three passages, with neurospheres disaggregated using Accumax (Innovative Cell Technologies) between passages.
Cultured MB neurospheres were disaggregated as described and 1×10^4 cells were seeded into wells of a 96-well assay plate in NBMedia and exposed to multiple analogue concentrations: Relative cell numbers following a 96-h incubation were quantified by CellTiter 96® AQueous One Solution Cell Proliferation Assay (Promega) per manufacturer's recommendations using a SpectraMax M2e spectrophotometer and SoftMax Pro software (Molecular Devices). Data was analyzed using Prism5 (GraphPad Software) and IC50 and IC90 values were determined from dose-response curves fitted to mean corrected absorbance normalized to control treatment.

[3] = system: Gli1 transcript; assay: Quantification of Gli1 transcript by TaqMan analysis in MB cells (Hh pathway); format: cell-based, mouse; details: Gli1 transcript fold induction score; MB cells exposed 24 h at the IC90 for MB proliferation
Text: Inhibitors of the Hh pathway are known to inhibit MB cell proliferation. However, MB cell proliferation is also affected by drugs with targets other than Hh signaling.
Following drug exposure, cells were washed in PBS and pelleted by centrifugation at 300×g. Cell pellets were lysed in Trizol reagent (Invitrogen). Total RNA was separated and collected in the aqueous phase following centrifugation of lysate in the presence of chloroform. Total RNA was ethanol precipitated and purified over RNeasy Mini Kit (Qiagen) filter columns per manufacturer's recommendations. Transcript levels were quantified using gene-specific TaqMan primer/probe sets and the StepOne Plus Real-Time PCR system (Applied Biosystems) on cDNA reverse transcribed using the QuantiTect Reverse Transcription Kit (Qiagen) per manufacturers' recommendations. Results were quantified using StepOne Plus software v2.1 (Applied Biosystems) and were expressed as fold induction relative to control samples using the A ΔCt (2^−ΔΔCt) method with actin as an internal control. The primer/probe set (Applied Biosystems) for TaqMan PCR for mouse Gli-1 was Mm00494645_m1, and for mouse actin was Mm00607939_s1.

[4] = system: HUVEC; assay: HUVEC proliferation assay ([3H]thymidine incorporation); format: cell-based, human; details: HUVEC; for Proliferation (EC50/IC50 Itra): footnote g: EC50 of analog relative to IC50 of itraconazole; for Proliferation (IC50/IC50 Itra): IC50 of analog relative to IC50 of itraconazole
Experimental: The activity of the analogs against HUVEC proliferation, an in vitro proxy for angiogenesis inhibition (Table 3) was analyzed. […]
Pooled HUVEC (Lonza) were grown in EGM-2 bullet kit media (Lonza) and used at passage eight or lower. The proliferation assays were conducted as previously described (Nacev, B.; Low, W. K.; Huang, Z.; Su, T.; Su, Z.; Alkuraya, H.; Kasuga, D.; Sun, W.; Trager, M.; Braun, M.; Fischer, G.; Zhang, K.; Liu, J. O., Acalcineurin-independent mechanism of angiogenesis inhibition by anon-immunosuppressive Cyclosporin Aanalog. J. Pharmacol. Exp. Ther. 2011, DOI:10.1124/jpet.111.18085).

Row | SMILES | Glycosylation (2 μM dose) [1] | MB Proliferation (IC50/IC50 Itra) [2] | Gli I Inhibition (IC90 Prolif. dose) [3] | Proliferation (EC50/IC50 Itra) [4] | Proliferation (IC50/IC50 Itra) [4]
1 | CCCCCCCCn1ncn(-c2ccc(N3CCN(c4ccc(OCC5COC(Cn6cncn6)(c6ccc(Cl)cc6Cl)O5)cc4)CC3)cc2)c1=O [Compound 7m, cis-(2S,4R)-4-[4-[4-[4-[[2-(2,4-Dichlorophenyl)-2-(1H-1,2,4-triazol-1-ylmethyl)-1,3-dioxolan-4-yl]methoxy]phenyl]-piperazinyl]phenyl]-2,4-dihydro-2-(n-octyl)-3H-1,2,4-triazol-3-one] | − | 0.67 | ++ (≤0.15) | 2.24^g | 
2 | O=c1n(-c2ccc(N3CCN(c4ccc(OCC5COC(Cn6cncn6)(c6ccc(Cl)cc6Cl)O5)cc4)CC3)cc2)cnn1CCCCCCc1ccccc1 [Compound 7n, cis-(2S,4R)-4-[4-[4-[4-[[2-(2,4-Dichlorophenyl)-2-(1H-1,2,4-triazol-1-ylmethyl)-1,3-dioxolan-4-yl]methoxy]phenyl]-lpiperazinyl]phenyl]-2,4-dihydro-2-(6-phenylhexyl)-3H-1,2,4-triazol-3-one] | − | 0.69 | ++ (≤0.15) | 1.45^g | 
3 | CCC#CCCn1ncn(-c2ccc(N3CCN(c4ccc(OCC5COC(Cn6cncn6)(c6ccc(Cl)cc6Cl)O5)cc4)CC3)cc2)c1=O [Compound 7o, cis-(2S,4R)-4-[4-[4-[4-[[2-(2,4-Dichlorophenyl)-2-(1H-1,2,4-triazol-1-ylmethyl)-1,3-dioxolan-4-yl]methoxy]phenyl]-lpiperazinyl]phenyl]-2,4-dihydro-2-(hex-3-ynyl)-3H-1,2,4-triazol-3-one] | − | 1.07 | ++ (≤0.15) |  | 1.09
4 | [N-]=[N+]=NCCCCCCn1ncn(-c2ccc(N3CCN(c4ccc(OCC5COC(Cn6cncn6)(c6ccc(Cl)cc6Cl)O5)cc4)CC3)cc2)c1=O [Compound 7p, cis-(2S,4R)-4-[4-[4-[4-[[2-(2,4-Dichlorophenyl)-2-(1H-1,2,4-triazol-1-ylmethyl)-1,3-dioxolan-4-yl]methoxy]phenyl]-lpiperazinyl]phenyl]-2,4-dihydro-2-(6-azidohexyl)-3H-1,2,4-triazol-3-one] | + | 0.70 | + (0.16 to 0.44) |  | 0.30
5 | CC/C=C/CCn1ncn(-c2ccc(N3CCN(c4ccc(OCC5COC(Cn6cncn6)(c6ccc(Cl)cc6Cl)O5)cc4)CC3)cc2)c1=O [Compound 7s, cis-(2S,4R)-4-[4-[4-[4-[[2-(2,4-Dichlorophenyl)-2-(1H-1,2,4-triazol-1-ylmethyl)-1,3-dioxolan-4-yl]methoxy]phenyl]-lpiperazinyl]phenyl]-2,4-dihydro-2-((E)-hex-3-enyl)-3H-1,2,4-triazol-3-one] | − | 0.63 | ++ (≤0.15) |  | 1.57
6 | CC/C=C\CCn1ncn(-c2ccc(N3CCN(c4ccc(OCC5COC(Cn6cncn6)(c6ccc(Cl)cc6Cl)O5)cc4)CC3)cc2)c1=O [Compound 7t, cis-(2S,4R)-4-[4-[4-[4-[[2-(2,4-Dichlorophenyl)-2-(1H-1,2,4-triazol-1-ylmethyl)-13-dioxolan-4-yl]methoxy]phenyl]-lpiperazinyl]phenyl]-2,4-dihydro-2-((Z)-hex-3-enyl)-3H-1,2,4-triazol-3-one] | − | 0.94 | ++ (≤0.15) |  | 0.73
